Earlier results on two compounds are cited in patent US10172811B2, “Topical antifungal composition for treating onychomycosis” (Polichem S.A., priority 2013, dated 2019).

Series [1] concerns onychomycosis. As to conditions: topical nail formulation; 48 weeks daily treatment, 12-week follow up.
The subject of series [2] is onychomycosis. Conditions: oral.

As for `Cc1cc(C2CCCCC2)n(O)c(=O)c1` [ciclopirox], in the series on onychomycosis [1], the Complete cure result is recorded as “about 13%” and the Responders was roughly 30%.

In the case of `CN(C/C=C/C#CC(C)(C)C)Cc1cccc2ccccc12` [terbinafine], the “Complete cure, proportion of patients” value in the series with onychomycosis [2] was 38%.
